Like-named read-outs stand apart in the source and are kept apart here.
How the values were obtained:
[1] = system: HBV (HepG2.117 cell line, inducibly HBV producing); assay: Anti-HBV activity: intracellular HBV DNA by real-time PCR in HepG2.117 cells after 3 days of treatment; type: cell-based, hepatitis B virus
Outline: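 Inducible HBV-producing HepG2.117 line (Tet-off); 3-day exposure to serially diluted compound after induction; real-time PCR of intracellular viral DNA.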

in vitro = type: cell-based; conditions: human, HepG2 or HepG2.117 cells, ATPlite, mean value; for CC50 at 4 days: 4-days incubation (values marked with *)
Outline: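 Luminescent ATP quantitation served as the viability endpoint following a 3- or 4-day incubation with test compounds.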

[2] = Hepatitis B virus, HepG2.117, 72 h, HepG2.117 cells, 3 days of treatment, intracellular HBV DNA by real-time PCR; mean value; read-out: EC50 (μM, mean value)
[3] = 3-days incubation (unmarked values)
[4] = Hepatitis B virus, HepG2.117, 72 h, HepG2.117 cells, intracellular HBV DNA by real-time PCR, 3 days of treatment, mean value; read-out: EC50 (μM, mean value)
[5] = 3-days incubation (not marked with *)

Row | SMILES | EC50 [1, 2] | CC50 at 3 days (in vitro; [3]) | EC50 [1, 4] | CC50 at 3 days (in vitro; [5]) | CC50 at 4 days (in vitro)
1 | CC(C)Nc1nc2c(c(=O)n1-c1ccc(S(C)(=O)=O)cc1)CC(C)N(C(=O)c1ccc(Cl)c(Cl)c1)C2 (stereo not shown) [Compound C100, 7-(3,4-dichlorobenzoyl)-3-[4-(methanesulfonyl)phenyl]-6-methyl-2-[(propan-2-yl)amino]-5,6,7,8-tetrahydropyrido[3,4-d]pyrimidin-4(3H)-one] | 0.51 µM | > 25 µM |  |  | 
2 | CNC(=O)c1ccc(-n2c(N[C@@H](C)c3ccc(F)cc3)nc3c(c2=O)C[C@@H](C)N(C(=O)c2ccc(Cl)c(Cl)c2)C3)cc1 [Compound C380] |  |  | 0.1 µM | 15.7 µM | 
3 | CC(C)Nc1nc2c(c(=O)n1-c1ccc3c(c1)C(=O)NC3)C[C@@H](C)N(C(=O)c1ccc(Cl)c(Cl)c1)C2 [Compound C229, (6R)-7-(3,4-dichlorobenzoyl)-6-methyl-3-(3-oxo-2,3-dihydro-1H-isoindol-5-yl)-2-[(propan-2-yl)amino]-5,6,7,8-tetrahydropyrido[3,4-d]pyrimidin-4(3H)-one] | 0.11 µM | > 50 µM |  |  | 
4 | CNC(=O)c1ccc(-n2c(N[C@@H](C)c3ccccn3)nc3c(c2=O)C[C@@H](C)N(C(=O)c2ccc(Cl)c(Cl)c2)C3)cc1 (single isomer, unassigned) [Compound C321, 4-[(6R)-7-(3,4-dichlorobenzoyl)-6-methyl-4-oxo-2-{[(1*S)-1-(pyridin-2-yl)ethyl]amino}-5,6,7,8-tetrahydropyrido[3,4-d]pyrimidin-3(4H)-yl]-N-methylbenzamide] | 0.94 µM | > 50 µM |  |  | 
5 | CNC(=O)c1ccc(-n2c(NC(C)C)nc3c(c2=O)C[C@@H](C)N(C(=O)c2cc4ccc(Cl)c(F)c4[nH]2)C3)cc1 [Compound C594] |  |  | 0.04 µM | 26.1 µM | 
6 | COc1ccc(CNc2nc3c(c(=O)n2C2COC2)CCN(C(=O)c2ccc(Cl)c(Cl)c2)C3)cc1 [Compound C58, 7-(3,4-dichlorobenzoyl)-2-{[(4-methoxyphenyl)methyl]amino}-3-(oxetan-3-yl)-5,6,7,8-tetrahydropyrido[3,4-d]pyrimidin-4(3H)-one] | 2.56 µM | 42.8 µM |  |  | 
7 | Cc1cc(-c2ccc(-n3c(NC(C)C)nc4c(c3=O)C[C@@H](C)N(C(=O)c3ccc(Cl)c(Cl)c3)C4)cc2)on1 [Compound C246, (6R)-7-(3,4-dichlorobenzoyl)-6-methyl-3-[4-(3-methyl-1,2-oxazol-5-yl)phenyl]-2-[(propan-2-yl)amino]-5,6,7,8-tetrahydropyrido[3,4-d]pyrimidin-4(3H)-one] | 0.19 µM | > 50 µM |  |  | 
8 | CC(=O)Nc1ccc(-n2c(NC(C)C)nc3c(c2=O)C[C@@H](C)N(C(=O)c2ccc(Cl)c(Cl)c2)C3)cc1 [Compound C409] |  |  | 0.11 µM | > 50 µM | 
9 | CNC(=O)c1n[nH]c(-n2c(NC(C)C)nc3c(c2=O)C[C@@H](C)N(C(=O)c2ccc(Cl)c(Cl)c2)C3)c1Cl [Compound C692] |  |  | 0.07 µM | > 50 µM | 
10 | COc1ccccc1-n1c(NCc2cscn2)nc2c(c1=O)CCN(C(=O)c1ccc(Cl)c(Cl)c1)C2 [Compound C16, 7-(3,4-dichlorobenzoyl)-3-(2-methoxyphenyl)-2-{[(1,3-thiazol-4-yl)methyl]amino}-5,6,7,8-tetrahydropyrido[3,4-d]pyrimidin-4(3H)-one] | 2.29 µM |  |  |  | 45.3 µM
11 | COc1ccccc1-n1c(NCc2cncs2)nc2c(c1=O)CCN(C(=O)c1ccc(Cl)c(Cl)c1)C2 [Compound C19, 7-(3,4-dichlorobenzoyl)-3-(2-methoxyphenyl)-2-{[(1,3-thiazol-5-yl)methyl]amino}-5,6,7,8-tetrahydropyrido[3,4-d]pyrimidin-4(3H)-one] | 8.77 µM | > 50 µM |  |  | 
12 | CNC(=O)c1ccc(-n2c(N[C@@H](C)c3ccc(F)cc3)nc3c(c2=O)C[C@@H](C)N(C(=O)c2ccc(Cl)c(C(F)(F)F)c2)C3)cc1 [Compound C651] |  |  | 0.05 µM | 8.8 µM | 
13 | CC(C)Nc1nc2c(c(=O)n1[C@H]1CC[C@@H](S(C)(=O)=O)CC1)C[C@@H](C)N(C(=O)c1ccc(Cl)c(Cl)c1)C2 [Compound C262, (6R)-7-(3,4-dichlorobenzoyl)-3-[cis-4-(methanesulfonyl)cyclohexyl]-6-methyl-2-[(propan-2-yl)amino]-5,6,7,8-tetrahydropyrido[3,4-d]pyrimidin-4(3H)-one] | 0.11 µM | 22.5 µM |  |  | 
14 | CC(C)Nc1nc2c(c(=O)n1-c1ccc(-c3ncccn3)cc1)CCN(C(=O)c1ccc(Cl)c(Cl)c1)C2 [Compound C187, 7-(3,4-dichlorobenzoyl)-2-[(propan-2-yl)amino]-3-[4-(pyrimidin-2-yl)phenyl]-5,6,7,8-tetrahydropyrido[3,4-d]pyrimidin-4(3H)-one] | 0.71 µM | > 45 µM |  |  | 
15 | C[C@@H]1Cc2c(nc(NC(C)(C)c3cnn(C)c3)n(-c3ccc(S(C)(=O)=O)cc3)c2=O)CN1C(=O)c1ccc(Cl)c(Cl)c1 [Compound C207, (6R)-7-(3,4-dichlorobenzoyl)-3-[4-(methanesulfonyl)phenyl]-6-methyl-2-{[2-(1-methyl-1H-pyrazol-4-yl)propan-2-yl]amino}-5,6,7,8-tetrahydropyrido[3,4-d]pyrimidin-4(3H)-one] | 0.59 µM | > 50 µM |  |  | 
16 | CNC(=O)c1ccc(-n2c(N[C@@H](C)c3ccccc3OC)nc3c(c2=O)C[C@@H](C)N(C(=O)c2ccc(Cl)c(Cl)c2)C3)cc1 (single isomer, unassigned) [Compound C402b] |  |  | 0.08 µM | 18.8 µM | 
17 | CC(C)Nc1nc2c(c(=O)n1-c1ccc(S(C)(=O)=O)cc1)[C@H](C)CN(C(=O)c1ccc(Cl)c(Cl)c1)C2 (single isomer, unassigned) [Compound C154B, (*S)-7-(3,4-dichlorobenzoyl)-2-(isopropylamino)-5-methyl-3-(4-(methylsulfonyl)-phenyl)-5,6,7,8-tetrahydropyrido[3,4-d]pyrimidin-4(3H)-one] | 0.51 µM | > 50 µM |  |  | 
18 | CNC(=O)c1ccc(-n2c(NC(C)C)nc3c(c2=O)C[C@@H](C)N(C(=O)c2ccc(Cl)c(C(F)(F)F)c2)C3)c(OC)c1 [Compound C643] |  |  | 0.05 µM | > 50 µM | 
19 | CNC(=O)c1ccc(-n2c(NC(C)C)nc3c(c2=O)C[C@@H](C)N(C(=O)c2ccc(Br)cc2F)C3)cc1 [Compound C511] |  |  | 2.41 µM | > 50 µM | 
20 | CC[C@@H](C)Nc1nc2c(c(=O)n1-c1ccc(C(=O)NC)cc1)C[C@@H](C)N(C(=O)c1ccc(Cl)c(Cl)c1)C2 [Compound C258, 4-[(6R)-2-{[(2R)-butan-2-yl]amino}-7-(3,4-dichlorobenzoyl)-6-methyl-4-oxo-5,6,7,8-tetrahydropyrido[3,4-d]pyrimidin-3(4H)-yl]-N-methylbenzamide] | 0.05 µM | > 50 µM |  |  | 
21 | CC(C)NC(=O)c1cnc(-n2c(NC(C)C)nc3c(c2=O)C[C@@H](C)N(C(=O)c2ccc(Cl)c(Cl)c2)C3)nc1 [Compound C382] |  |  | 0.05 µM | > 50 µM | 
22 | CNC(=O)c1ccc(-n2c(NC(C)C)nc3c(c2=O)C[C@@H](C)N(C(=O)c2nn(C)c4ccccc24)C3)cc1 [Compound C477] |  |  | 10.2 µM | > 50 µM | 
23 | CNC(=O)c1ccc(-n2c(N3CC4CC3(C)C4)nc3c(c2=O)C[C@@H](C)N(C(=O)c2ccc(Cl)c(Cl)c2)C3)cc1 [Compound C444] |  |  | 0.06 µM | 37.6 µM | 
24 | CC(C)Nc1nc2c(c(=O)n1-c1ccc(-n3cccn3)cc1Cl)C[C@@H](C)N(C(=O)c1ccc(Cl)c(Cl)c1)C2 [Compound C404] |  |  | 0.13 µM | > 50 µM | 
25 | CNC(=O)c1ccc(-n2c(N[C@@H](C)c3cccc(F)c3)nc3c(c2=O)C[C@@H](C)N(C(=O)c2ccc(Cl)c(Cl)c2)C3)cc1 [Compound C306, 4-[(6R)-7-(3,4-dichlorobenzoyl)-2-{[(1S)-1-(3-fluorophenyl)ethyl]amino}-6-methyl-4-oxo-5,6,7,8-tetrahydropyrido[3,4-d]pyrimidin-3(4H)-yl]-N-methylbenzamide] | 0.08 µM | 19.3 µM |  |  | 
26 | CNC(=O)c1ccc(-n2c(N3CC4(CCC4)C3)nc3c(c2=O)C[C@@H](C)N(C(=O)c2ccc(Cl)c(Cl)c2)C3)cc1 [Compound C332, 4-[(6R)-2-(2-azaspiro[3.3]heptan-2-yl)-7-(3,4-dichlorobenzoyl)-6-methyl-4-oxo-5,6,7,8-tetrahydropyrido[3,4-d]pyrimidin-3(4H)-yl]-N-methylbenzamide] | 1.46 µM | 26 µM |  |  | 
27 | COc1ccccc1-n1c(NCc2ccccn2)nc2c(c1=O)CCN(C(=O)c1ccc(Cl)c(Cl)c1)C2 [Compound C12, 7-(3,4-dichlorobenzoyl)-3-(2-methoxyphenyl)-2-{[(pyridin-2-yl)methyl]amino}-5,6,7,8-tetrahydropyrido[3,4-d]pyrimidin-4(3H)-one] | 5.95 µM |  |  |  | > 50 µM
28 | CNC(=O)c1ccc(-n2c(N[C@H](C)c3nccs3)nc3c(c2=O)C[C@@H](C)N(C(=O)c2ccc(Cl)c(Cl)c2)C3)cc1 (single isomer, unassigned) [Compound C434a] |  |  | 0.99 µM | > 50 µM | 
29 | CC(C)Nc1nc2c(c(=O)n1-c1ccc(-c3nccn3C)cc1Cl)C[C@@H](C)N(C(=O)c1ccc(Cl)c(Cl)c1)C2 (single isomer, unassigned) [Compound C392a] |  |  | 0.16 µM | 22.7 µM | 

Source: patent publication US20230091047A1 (priority 2019, published 2023)
